Measurements from patent publication US10017489B2, “Method for preparing benzopyran compound and application thereof in treating pulmonary fibrosis” (SHANGHAI JIAO TONG UNIVERSITY, priority 2013, dated 2018).
Like-named read-outs stand apart in the source and are kept apart here.

System: Human lung fibroblasts, WI26 cell
Test: Inhibitory effect on WI26 cells proliferation (CCK-8 assay)
Assay type: cell-based
Conditions: for inhibition at 15 µg/mL / inhibition at 30 µg/mL: Homo sapiens, Fibroblast, CCK-8; for toxicity to cell: based on dynamics of the inhibitory effect in FIG. 2; for inhibition at 30 µg/mL: read-out: inhibition rate, WI26 cells proliferation
Method: Cells: Human lung fibroblasts, WI26 cell;
Methods: wherein WI26 cells at 70-80% confluent were trysinized by 0.25% trypsin solution and seeded in 96-well plates at an initial density of 1×10^4 cells/mL. A medium was replaced 24 h later by the fresh with 15 μg/ml compound 1 and 1/1000 DMSO (drug treatment group 1 and its control) or 30 μg/ml compound 2 and 1/1000 DMSO (drug treatment group 2 and its control), then the medium was refreshed and cell viability was measured by using a CCK-8 method at day 0, 1, 2, 3, 4, 5, 6, respectively. Proliferation measurement was applied by adding 100 μL complete medium and 10 μL CCK-8 solutions to each well and incubating for 1 h. OD values of each well were measured at a primary wavelength λ=450 nm by using a Microplate Spectrophotometer. Data are shown as means±standard deviation (SD) of three independent experiments, each performed in triplicate.

SMILES | inhibition at 15 µg/mL (15 μg/ml compound 1, day one) [%] | inhibition at 15 µg/mL (15 μg/ml compound 1, day six) [%] | toxicity to cell (normal human lung fibroblasts) | increase of inhibition compared with drug treatment group 2 (compound 2) (compound 1 at 15 μg/ml vs compound 2 at 30 μg/ml) [%] | effective concentration to inhibit normal human lung fibroblasts proliferation and activation (normal human lung fibroblasts) [µg/mL] | inhibition at 30 µg/mL (30 μg/ml compound 2, day one) [%] | inhibition at 30 µg/mL (30 μg/ml compound 2, day six) [%]
CC(C)=CCC[C@]1(C)Oc2ccc(C(N)=O)cc2C[C@@H]1O [compound 1, xiamenmycin C] | 13.8 | 38 | low toxicity | ~10 | 15 |  | 
CC(C)=CCC[C@]1(C)Oc2ccc(C(=O)N[C@H](C(=O)O)[C@@H](C)O)cc2C[C@@H]1O [compound 2, Xiamenmycin, reference compound] |  |  | low toxicity |  |  | 10 | 28.5
